Measured values taken from PMC3125470 (Biochemistry, 2011).

Target: T1, MsPat (MSMEG_5458) (Mycolicibacterium smegmatis, UniProt A0R3F9)
T1 sequence (A0R3F9 1-333): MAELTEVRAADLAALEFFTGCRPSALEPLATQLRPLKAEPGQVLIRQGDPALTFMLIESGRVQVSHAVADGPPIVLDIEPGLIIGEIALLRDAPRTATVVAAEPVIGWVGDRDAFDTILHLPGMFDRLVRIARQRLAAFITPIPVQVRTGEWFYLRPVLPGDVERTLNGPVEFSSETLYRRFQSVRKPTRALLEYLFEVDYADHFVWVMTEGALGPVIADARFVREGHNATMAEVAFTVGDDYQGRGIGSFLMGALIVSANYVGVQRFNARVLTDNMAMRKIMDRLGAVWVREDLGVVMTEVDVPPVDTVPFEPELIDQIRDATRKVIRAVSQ
Test: fluorescent labeling of ACS and time-dependent ACS inactivation
Format: biochemical
Conditions: 1 mM cGMP in place of cAMP; weak activator, allosteric

## Nc1nc2c(ncn2[C@@H]2O[C@@H]3COP(=O)(O)O[C@H]3[C@H]2O)c(=O)[nH]1 [cGMP]
  fluorescent labeling of ACS and time-dependent ACS inactivation: Much weaker labeling of ACS was observed when cAMP was replaced with cGMP
